From patent US20220313719A1, “METHODS OF TREATING DISEASES ASSOCIATED WITH CHANGES IN PLATELET COUNTS USING PROTEIN KINASE A ACTIVATOR AND INHIBITOR” (Soochow university, priority 2017, published 2022)

Experiments:
washed platelets [1] = test: Platelet shrinkage experiment (FSC of GPIIb/IIIa positive platelets); format: cell-based, human
Protocol: Washed platelets were incubated with different concentrations of H89 (12.5 μM, 25 μM, 37.5 μM and 50 μM) or negative control (DMSO) at room temperature for 10 min. The platelets and the SZ21 antibody were then incubated for 30 min at room temperature. The platelets were centrifuged, resuspended with the FITC-labeled goat-anti-mouse antibody, and incubated for 30 min at room temperature in the dark. The platelets were collected by using a flow cytometer, and platelet scatter plots collected by FSC-FL1 were used to analyze the platelets. The degree of shrinkage of the platelets was evaluated by analyzing the change in FSC and evaluating the degree of FSC reduction in GPIIb/IIIa positive cells. A23187 was used as a positive control. DMSO was used as a negative control.
(§1) Different concentrations of H89 (0, 12.5, 25, 37.5, and 50 μM) were applied to washed platelets at 22° C. for 160 min, and mitochondrial transmembrane potential depolarization and PS exposure of platelets were detected by using the flow cytometer. The experiments were repeated four times. The washed platelets were pretreated with different concentrations of H89 at 22° C. for 30 min. At the same time, DMSO and A23187 treated negative control group and positive control group platelets were established. Caspase-3, gelsolin protein expression and caspase-3 activity in platelets were detected by Western blot. […]

washed platelets [2] = test: Mitochondrial membrane potential (ΔΨm) detection with JC-1 by flow cytometer; format: cell-based, human
Protocol: When washed platelets were prepared, venous blood from healthy volunteers was anticoagulated with ACD (2.5% sodium citrate, 2.0% glucose, and 1.5% citric acid) at 1:7, platelet-rich plasma (PRP) was obtained by centrifugation at 1300 rpm for 20 min, the PRP was centrifuged at 1500 g for 2 min, and the supernatant was discarded. The precipitated platelets were suspended, centrifuged and washed with CGS buffer (0.123 M sodium chloride, 0.033 M glucose, 0.013 M sodium citrate, pH 6.5). […] The platelets were counted by a counter. […]
Washed platelets (3×10^8/mL) were incubated with different concentrations of H89 (12.5 μM, 25 μM, 37.5 μM and 50 μM) or negative control (DMSO) for 10 min at room temperature, and then platelet ΔΨm was determined using the lipophilic cationic dye JC-1. JC-1 with a final concentration of 2 μg/ml was added to the treated platelets, and the platelets were incubated at 37° C. for 20 min in the dark, and detected by using a flow cytometer. […] The JC-1 monomer (λex 514 nm, λem 529 nm) and the polymer (λex 585 nm, λem 590 nm) were determined by calculating the proportion of flow red fluorescence (JC-1 polymer) or green fluorescence (JC-1 monomer). […]

BAD position 155 = test: Western blot / co-immunoprecipitation of BAD Ser155 phosphorylation and Bel-xL in platelets; format: cell-based, human; details: 37.5 uM H89 or 10 uM forskin, 160 min
Protocol: Next, we further explored the mechanism by which PKA inhibits induction of platelet apoptosis. At room temperature, 3×10^8/mL washed platelets were incubated with different concentration gradients of H89 or the DMSO internal reference for 160 min. The platelets were lysed on ice for 30 min with an equal volume of lysis buffer. The product was electrophoretically separated by SDS-PAGE to obtain protein fragments of different sizes. The protein fragments were blocked in skim milk powder for one hour and then the primary antibody was added for incubation. […] The washed platelets were pretreated with 37.5 uM H89, 10 uM forskin and the DMSO internal reference respectively for 160 min at room temperature. Cytoplasmic proteins (FIG. 8B) and mitochondrial proteins (FIG. 8D) were extracted from the platelets, respectively. The interest proteins were detected by western blot. The amount of the interest proteins was analyzed by Image J software. Four experiments were counted to show the results in mean±standard deviation. After lysis, the pre-treated platelets were centrifuged at 17,000 g for 10 min at 4° C. The obtained supernatant was incubated with the corresponding antibody for precipitation overnight, and after incubation with protein A/G+ agarose beads at 4° C. for 2 hours, the beads were eluted for protein hybridization (FIG. 8C).

stored platelets = test: Clearance of stored platelets in the body; details: in vivo
Excerpt: In addition to apoptosis, there are other changes in storage damage that result in the clearance of stored platelets in the body. Therefore, we investigated whether PKA activation protects platelet from apoptosis while preventing the stored platelets from being cleared.

caspase-3 = test: Western blot of caspase-3, gelsolin and caspase-3 activity in platelets; format: cell-based, human; details: different concentrations of H89, 22° C., 30 min
Protocol: Washed platelets were incubated with different concentrations of H89 (25 μM, 50 μM, and 100 μM) or negative control (DMSO) at room temperature for 10 min. The reaction was stopped by the addition of 2× cell lysis buffer (containing 2 mM PMSF, 2 mM NaF, 2 mM Na3VO4, and protease inhibitor), and the platelets were lysed on ice, and sampled. The samples were tested for expression of the corresponding proteins by Western blotting.
as §1, with “blot. The FITC-labeled anti-CD41 antibody was mixed with the pre-treated platelets at a ratio of 1:10, and incubated at room temperature for 10 min in the dark. Analyzing the platelet size scatter plot, the decrease in the CD41 positive cell count represents a decrease in the platelet count.” for “blot.”

washed platelets [3] = test: Scanning electron microscopy of platelet morphology; format: cell-based, human; details: 22° C., 160 min
Protocol: The washed platelets were fixed with 2.5% […] at 4° C. overnight. The washed platelets were sent to a scanning electron microscope sample room for sample preparation. Morphological analysis of the platelets was carried out by the scanning electron microscope (Japan Hitachi, 5-4700). Five different fields of view were selected for observation and photographing.
as §1, with “blot. The FITC-labeled anti-CD41 antibody was mixed with the pre-treated platelets at a ratio of 1:10, and incubated at room temperature for 10 min in the dark. Analyzing the platelet size scatter plot, the decrease in the CD41 positive cell count represents a decrease in the platelet count.” for “blot.”

washed platelets [4] = test: Fasudil platelet apoptosis (ΔΨm and PS exposure) with thrombin; format: cell-based, human; details: 10 min room temperature, then thrombin 0.1 U/ml 30 min 37° C.
Protocol: Washed platelets (3×10^8/mL) were incubated with different Fasudil or negative control (normal saline) for 10 min at room temperature. Thereafter, except the negative control, thrombin (0.1 U/ml) was added to each group, and incubation was carried out for 30 min at 37° C. Platelet ΔΨm was measured using the lipophilic cationic dye JC-1. JC-1 with a final concentration of 2 μg/ml was added to the treated platelets, and the platelets were incubated at 37° C. for 5 min in the dark, and detected by using the flow cytometer. […] The JC-1 monomer (λex 514 nm, λem 529 nm) and the polymer (λex 585 nm, λem 590 nm) were determined by calculating the proportion of flow red fluorescence (JC-1 polymer) or green fluorescence (JC-1 monomer) (FIG. 22).
Washed platelets (3×10^8/mL) were incubated with different Fasudil or negative control (normal saline) for 10 min at room temperature. Thereafter, except the negative control, thrombin (0.1 U/ml) was added to each group, and incubation was carried out for 30 min at 37° C. After that, Annexin V buffer, treated platelets, and Annexin V-FITC in a ratio of 50:10:1 were incubated for 15 min at room temperature in the dark, and detected by using the flow cytometer (FIG. 22).

platelets = test: Anti-platelet antibody R300-induced platelet clearance (ITP mouse model); format: in vivo, ICR mice; details: for platelet counts versus NS group at 30 min: injection 10 min before R300 (0.1 μg/g), PGE2 20 ng/ml, cAMP 12 μg/ml, P<0.05
Protocol: After 10 min, the anti-platelet antibody R300 (0.2 μg/kg) was intraperitoneally injected into the mice, and the whole blood was collected from the orbital vein at different time points. The platelets were counted by a Sysmex XP-100 blood analyzer, 6 mice were used per group, and the results were expressed as mean±standard deviation (FIG. 12C).
12 ICR mice were divided into two groups with 6 mice in each group. The 6 mice in the experimental group were injected with milrinone (1 mg/kg), and the 6 mice in the control group were injected with normal saline (NS). 10 min after the mice were injected with the milrinone (1 mg/kg) (or NS) in the tail vein, the mice were intraperitoneally injected with the R300 antibody (0.1 mg/kg). Blood sampling and counting were then carried out at each time point.
First, the mice were sampled for blood as a reference value. Then the control group and the test group were injected with 0.9% NS and PGE2 (20 ng/ml), respectively. After 10 min, R300 (0.1 μg/g) was injected. Blood sampling and counting were then carried out at 30 min, 2 h, 4 h, 6 h, and 24 h.
First, the mice were sampled for blood as a reference value. Then the control group and the test group were injected with 0.9% NS and cAMP (12 μg/ml), respectively. After 10 min, R300 (0.1 μg/g) was injected. Blood sampling and counting were then carried out at 30 min, 2 h, 4 h, 6 h, and 24 h.
First, the mice were sampled for blood as a reference value. Then the control group and the test group were injected with 0.9% NS and aminophylline (0.24 mmol/L), respectively. After 10 min, R300 (0.1 μg/g) was injected. Then blood sampling and counting were carried out at 30 min, 2 h, 4 h, 6 h, and 24 h (FIG. 20).

`O=S(=O)(NCCNCC=Cc1ccc(Br)cc1)c1cccc2cnccc12` [H89, N-[2-((p-bromocinnamyl)amino)ethyl]-5-isoquinoline sulfonamide] was tested, and the “forward scatter (FSC) of GPIIb/IIIa-positive platelets (shrinkage)” value (washed platelets [1]) was “decrease”, the “ΔΨm depolarization in platelets, time dependence” value (washed platelets [2]) was “in a time-dependent manner” and the “mitochondrial membrane potential (ΔΨm) depolarization in platelets, dose dependence” value (washed platelets [2]; H89 0, 12.5, 25, 37.5, 50 μM, 22° C., 160 min) was “dose-dependently induced”. The “Bel-xL protein on the mitochondrial membrane” value (BAD position 155) was “decrease”, the “co-immunoprecipitation of Bel-xL and BAD” value (BAD position 155) was “significantly reduced” and the “phosphorylation of serine at the BAD position 155” value (BAD position 155; room temperature) was “decreased”. For the same compound, the “clearance of stored platelets by the body” value (stored platelets) was “speeds up the clearance”, the “activation of caspase-3” value (caspase-3) was “dose-dependently induced” and the “digestion of caspase-3 substrate gelsolin” value (caspase-3) was “dose-dependently induced”. The “typical apoptotic morphological changes (membrane vesicles, pseudopods, shrinkage, degranulation)” value (washed platelets [3]) was “dose-dependently induce”.
With `O=S(=O)(c1cccc2cnccc12)N1CCCNCC1` [Fasudil] the platelet apoptosis (washed platelets [4]) was “can Promote”.
For `Cn1c(=O)c2[nH]cnc2n(C)c1=O` [Aminophylline, aminophylline], the “platelet clearance in vivo” value (platelets; aminophylline 0.24 mmol/L, R300 0.1 μg/g after 10 min) was “can Inhibit”.
With `Nc1ncnc2c1ncn2[C@@H]1O[C@@H]2COP(=O)(O)O[C@H]2[C@H]1O` [cAMP, cyclic adenosine monophosphate] the “platelet counts versus NS group at 30 min” value (platelets) was “has statistic difference”.
With `Cc1[nH]c(=O)c(C#N)cc1-c1ccncc1` [milrinone] the “platelet counts in peripheral blood of mice” value (platelets; milrinone 1 mg/kg tail vein, R300 0.1 mg/kg i.p. after 10 min, vs NS) was “significantly increased”.
For `CCCCC[C@H](O)/C=C/[C@H]1[C@H](O)CC(=O)[C@@H]1C/C=C\CCCC(=O)O` [PGE2, prostaglandin E2], the “platelet counts versus NS group at 30 min” value (platelets) was “has statistic difference”.
